From patent publication US9980927B2, “Use of tapentadol for inhibiting and/or treating depression and anxiety” (Gruenenthal GmbH, priority 2011, dated 2018)

System: patients with inadequately managed, severe chronic low back pain with or without a neuropathic pain component
Assay: Hospital Anxiety and Depression Scale (HADS) anxiety score; open-label phase IIIb trial, tapentadol prolonged release 50-250 mg bid for up to 12 weeks
Type: in vivo, human patients
Experimental: As used herein, the “anxiety score” is a value determining the degree of the […]. The scale of anxiety scores covers the range from 0 to 21, wherein the degree of the anxiety is high in case of high values and low in case of low values. In a group of tested subjects, typically the mean or mediate values of anxiety scores are determined and referred to. The mean value is the sum of all anxiety scores divided by the number of subjects. The mediate value is the middle anxiety score in the set of determined scores. Preferably, the “anxiety score” is defined as in the experimental section.
A subgroup suffering from neuropathic pain due to lumbar radiculopathy was also investigated.
This was a multicenter, multinational, open-label, effectiveness phase IIIb trial to evaluate effectiveness and safety of tapentadol prolonged release treatment in patients with inadequately managed, severe chronic low back pain with or without a neuropathic pain component. Patients taking WHO Step II analgesics discontinued those analgesics before starting study medication; patients taking Step I analgesics and/or centrally acting co-analgesics continued on the same dose. […] All patients received tapentadol prolonged release (50-250 mg bid) for up to 12 weeks (5-week titration period and a 7-week maintenance period). Tapentadol immediate release (IR) 50 mg (twice a day, hours apart) was permitted (combined total daily dose of tapentadol prolonged release and tapentadol IR, 500 mg/day). The primary efficacy endpoint was the change from Baseline to Week 6 (when tapentadol prolonged release doses were stable) in average pain intensity on the 11-point NRS-3 using the last observation carried forward (LOCF) for imputing missing scores. The painDETECT questionnaire was used to evaluate the likelihood of a neuropathic pain component of low back pain; patients were classified as painDETECT “negative,” “unclear,” or “positive.” The population of patients classified as painDETECT negative was limited to approximately 30% of the total population.
In the painDETECT positive trial population the “diagnosis of lumbar radiculopathy” was evaluated which was defined per study protocol according following criteria: • typical dermatomal pain (radiating beyond the knee towards the foot, pain evoked by stretching within distribution of the ischiadic/femoral nerve) • signs of root dysfunction: • such as sensory impairment, motor symptoms from compression of lumbar nerve root (L4, L5, S1). • and/or absent or diminished quadriceps femoris or triceps surae reflexes. • and/or quantitative sensory testing (QST) deficit and pain distribution present in the same dermatomal area.
All subjects completed Short Form-36 (SF-36) and EuroQol-5 Dimension (EQ-5D) questionnaires and the Hospital Anxiety and Depression Scale (HADS). The Patient Global Impression of Change (PGIC) and Clinical global impression of change (CGIC) were also used as secondary endpoints. For both tests, patients completed the statement, “since I began trial treatment, I would rate my overall condition as,” using 7 possible responses (“very much worse” to “very much improved”). Adverse events were recorded throughout the trial.
In the following • (i) N is the number of subjects of the specified diagnosis group, • (ii) n is the number of subjects with data available, • (iii) “Mean” is the mean score of the subjects, i.e. the sum of all scores is divided by the number of subjects, • (iv) SD is the standard deviation, • (v) “Median” is the median score of the subjects, i.e. the middle score in the set of scores, • (vi) “Range” is the range of scores of the subjects, i.e. the range defined by the lowest and the highest score of the set of scores. First, the depression scores are presented. The total number of subjects in the clinical study: N=175

[1] = Visit 8, presumed neuropathic pain component N=41
[2] = Visit 8, presumed or defined neuropathic
[3] = Visit 8, presumed or defined neuropathic pain component N=126
[4] = Visit 8, subjects with nociceptive pain N=49
[5] = Visit 9, defined neuropathic pain N=85
[6] = Visit 9, positive diagnosis of lumbar radiculopathy-neuropathic pain subset N=44
[7] = Visit 9, presumed neuropathic pain component N=41
[8] = Visit 9, presumed or defined neuropathic pain component N=126
[9] = Visit 9, subjects with nociceptive pain N=49
[10] = Visit 10, defined neuropathic pain N=85
[11] = Visit 10, positive diagnosis of lumbar radiculopathy-neuropathic pain subset N=44
[12] = Visit 10, presumed neuropathic pain component N=41
[13] = Visit 10, presumed or defined neuropathic pain component N=126
[14] = Visit 10, subjects with nociceptive pain N=49
[15] = Visit 11, defined neuropathic pain N=85
[16] = Visit 11, positive diagnosis of lumbar radiculopathy-neuropathic pain subset N=44
[17] = Visit 11, presumed neuropathic pain component N=41
[18] = Visit 11, presumed or defined neuropathic pain component N=126
[19] = Visit 11, subjects with nociceptive pain N=49
[20] = Visit 12, defined neuropathic pain N=85
[21] = Visit 12, positive diagnosis of lumbar radiculopathy-neuropathic pain subset N=44
[22] = Visit 12, presumed neuropathic pain component N=41
[23] = Visit 12, presumed or defined neuropathic
[24] = Visit 12, presumed or defined neuropathic pain component N=126
[25] = Visit 12, subjects with nociceptive pain N=49

Which results are given for CC[C@@H](c1cccc(O)c1)[C@@H](C)CN(C)C [tapentadol, (−)-(1R,2R)-3-(3-dimethylamino-1-ethyl-2-methyl-propyl)-phenol]?
Anxiety score Median (Visit 8, positive diagnosis of lumbar radiculopathy-neuropathic pain subset N=44): 5.0; Anxiety score Mean (SD) [1]: 4.9 (4.04); Anxiety score Median [1]: 4.0; Anxiety score change from baseline Mean (SD) [2]: −2.4 (3.57); Anxiety score change from baseline Median [2]: −2.0; Anxiety score Mean (SD) [3]: 5.7 (3.80); Anxiety score Median [3]: 5.0; Anxiety score Mean (SD) [4]: 5.4 (4.40); Anxiety score Median [4]: 4.0; Anxiety score change from baseline Mean (SD) (Visit 8, total): −1.9 (3.72); Anxiety score change from baseline Median (Visit 8, total): −2.0; Anxiety score Mean (SD) (Visit 8, total subjects N=175): 5.6 (3.95); Anxiety score Median (Visit 8, total subjects N=175): 5.0; Anxiety score Mean (SD) [5]: 6.1 (3.99); Anxiety score Median [5]: 5.0; Anxiety score Mean (SD) [6]: 6.2 (4.01); Anxiety score Median [6]: 5.0; Anxiety score Mean (SD) [7]: 6.1 (5.10); Anxiety score Median [7]: 6.0; Anxiety score Mean (SD) [8]: 6.1 (4.32); Anxiety score Median [8]: 5.0; Anxiety score Mean (SD) [9]: 4.6 (3.34); Anxiety score Median [9]: 4.0; Anxiety score Mean (SD) (Visit 9, total subjects N=175): 5.7 (4.10); Anxiety score Median (Visit 9, total subjects N=175): 4.0; Anxiety score Mean (SD) [10]: 6.1 (3.98); Anxiety score Median [10]: 6.0; Anxiety score Mean (SD) [11]: 6.1 (3.85); Anxiety score Median [11]: 6.0; Anxiety score Mean (SD) [12]: 5.5 (5.46); Anxiety score Median [12]: 4.0; Anxiety score Mean (SD) [13]: 5.9 (4.46); Anxiety score Median [13]: 5.0; Anxiety score Mean (SD) [14]: 4.7 (3.21); Anxiety score Median [14]: 4.0; Anxiety score Mean (SD) (Visit 10, total subjects N=175): 5.6 (4.16); Anxiety score Median (Visit 10, total subjects N=175): 5.0; Anxiety score Mean (SD) [15]: 5.9 (3.84); Anxiety score Median [15]: 5.5; Anxiety score Mean (SD) [16]: 6.3 (4.25); Anxiety score Median [16]: 6.5; Anxiety score Mean (SD) [17]: 5.1 (4.25); Anxiety score Median [17]: 4.0; Anxiety score Mean (SD) [18]: 5.6 (3.96); Anxiety score Median [18]: 5.0; Anxiety score Mean (SD) [19]: 4.8 (3.77); Anxiety score Median [19]: 4.0; Anxiety score Mean (SD) (Visit 11, total subjects N=175): 5.4 (3.91); Anxiety score Median (Visit 11, total subjects N=175): 5.0; Anxiety score change from baseline Mean (SD) (Visit 12): −3.1 (3.16); Anxiety score change from baseline Median (Visit 12): −3.0; Anxiety score change from baseline Mean (SD) (Visit 12, defined neuropathic): −2.3 (4.14); Anxiety score change from baseline Median (Visit 12, defined neuropathic): −2.0; Anxiety score Mean (SD) [20]: 5.7 (3.80); Anxiety score Median [20]: 5.0; Anxiety score change from baseline Mean (SD) (Visit 12, lumbar radiculopathy): −2.2 (4.11); Anxiety score change from baseline Median (Visit 12, lumbar radiculopathy): −2.0; Anxiety score change from baseline Mean (SD) (Visit 12, nociceptive): −0.8 (2.82); Anxiety score change from baseline Median (Visit 12, nociceptive): −1.0; Anxiety score Mean (SD) [21]: 5.7 (3.59); Anxiety score Median [21]: 6.0; Anxiety score Mean (SD) [22]: 4.8 (3.67); Anxiety score Median [22]: 4.0; Anxiety score change from baseline Mean (SD) [23]: −2.5 (3.85); Anxiety score change from baseline Median [23]: −2.0; Anxiety score Mean (SD) [24]: 5.4 (3.76); Anxiety score Median [24]: 5.0; Anxiety score Mean (SD) [25]: 4.5 (3.65); Anxiety score Median [25]: 3.0; Anxiety score change from baseline Mean (SD) (Visit 12, total): −2.1 (3.67); Anxiety score change from baseline Median (Visit 12, total): −2.0; Anxiety score Mean (SD) (Visit 12, total subjects N=175): 5.2 (3.73); Anxiety score Median (Visit 12, total subjects N=175): 4.0; efficacy against anxiety (conclusion from the clinical data): significant efficacy
